The test system of one test is Italian ryegrass. The test can be described thus: Test A preemergence. The format is in vivo, Lolium multiflorum. In short, it runs like this: (§1)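 Greenhouse pot test, loam/sand soil. Formulation: non-phytotoxic solvent mix plus surfactant. Pre: directed spray onto soil after sowing. Post: plants at 1–2 leaf, 2–10 cm. Rated visually vs untreated controls at ~10 d, 0 (no effect) to 100 (complete control).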

Another test relates to galium. The test can be described thus: Test A postemergence. The class given is in vivo, Galium aparine. In short, it runs like this: as §1
The test system of another test is sedge, umbrella. The test can be described thus: Test C flooded paddy test. The format is in vivo, Cyperus difformis. To be noted: Flood, scale 0 to 100 (0 no effect, 100 complete control), 13 to 15 days. Summed up: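 Visual injury ratings against untreated controls, taken 13 to 15 days after compound was added to paddy water standing 3 cm above the soil.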
[1] abbreviates: 1000 g ai/ha, 0 to 100 scale, 0 no effect, 100 complete control, approx. 10 days.
Where [2] appears, read: 1000 g ai/ha, 0 to 100 scale, 0 no effect, 100 complete control.
Setting [3] is: 500 g ai/ha, 0 to 100 scale where 0 is no effect and 100 is complete control.
The mark [4] stands for this setting: 125 g ai/ha, 0 to 100 scale, 0 no effect, 100 complete control.
[5] abbreviates: 125 g ai/ha, 0 to 100 scale where 0 is no effect and 100 is complete control.
[6] abbreviates: 31 g ai/ha, 0 to 100 scale where 0 is no effect and 100 is complete control, visual, approximately 10 days.
The mark [7] stands for this setting: 31 g ai/ha, 0 to 100 scale, 0 no effect, 100 complete control.
Setting [8] is: 500 g ai/ha, 0 to 100 scale, 0 no effect, 100 complete control, approx. 10 days.

These results are taken from patent US9695155B2, “Herbicidal substituted pyrimidinyloxy benzene compounds” (E. I. DU PONT DE NEMOURS AND COMPANY, priority 2013, dated 2017).

On to `FCc1cn(-c2c(F)cccc2Oc2ncc(Cl)cn2)nn1` [Compound 154], for which the “Ryegrass, Italian plant response rating” value with Italian ryegrass (setting [1]) amounted to 90. The “Plant response rating, Galium” value with galium (setting [2]) is listed as 100.
As to `N#Cc1cccc(Oc2ncc(Cl)cn2)c1-n1cc(-n2ccc(C(F)(F)F)n2)cn1` [Compound 284], the “Ryegrass, Italian plant response rating (0 to 100 scale)” value (“Ryegrass … (0 to 100 scale)” for short) in the test with Italian ryegrass (125 g ai/ha) is 20. In addition, the “Ryegrass, Italian plant response rating” value in the test with Italian ryegrass (setting [3]) was 20. Also, the “Plant response rating, Galium” value stood at 20 in the test on galium (setting [4]) and 60 in the test with galium (setting [3]).
For `Cc1cnc(Oc2cccc(C#N)c2-n2cc(I)cn2)nc1` [Compound 136], in the test with Italian ryegrass (setting [5]), the “Plant response rating, Ryegrass, Italian” value was 0. In the test on Italian ryegrass (setting [3]), the “Ryegrass, Italian plant response rating” value is listed as 30. The “Galium plant response rating” value in the test on galium (setting [5]) was 80. Besides, the “Plant response rating, Galium” value in the test on galium (setting [3]) is on record as 100.
Consider `Fc1cccc(Oc2ncc(Cl)cn2)c1-n1cc(OCC(F)(F)F)cn1` [Compound 270], for which the “Plant response rating, Sedge, Umbrella” value in the test on sedge, umbrella (31 g ai/ha) is on record as 0; with sedge, umbrella (62 g ai/ha), 25; in the test with sedge, umbrella (125 g ai/ha), 60; in the test with sedge, umbrella (250 g ai/ha) it was 95. Moreover, the “Plant response rating, Ryegrass, Italian” value with Italian ryegrass (setting [6]) is 0. The “Ryegrass … (0 to 100 scale)” value with Italian ryegrass (125 g ai/ha) stood at 10. Besides, the figures for the “Plant response rating, Galium” value in the test on galium (setting [7]) and in the test on galium (setting [4]) were 60 and 90, respectively.
Consider `N#Cc1cccc(Oc2ncc(Cl)cn2)c1-n1cnc(C(F)(F)F)c1` [Compound 252, 3-[(5-chloro-2-pyrimidinyl)oxy]-2-[4-(trifluoromethyl)-1H-imidazol-1-yl]benzonitrile], for which the “Plant response rating, Ryegrass, Italian” value with Italian ryegrass (setting [6]) is given as 20. Also, the “Ryegrass … (0 to 100 scale)” value with Italian ryegrass (125 g ai/ha) is on record as 20. In addition, the “Ryegrass, Italian plant response rating” value in the test with Italian ryegrass (setting [3]) was determined as 90. Besides, the “Plant response rating, Galium” value is 60 with galium (setting [7]), 90 in the test on galium (setting [4]) and 100 with galium (setting [3]).
As to `FCc1cccc(Oc2ncc(Br)cn2)c1-n1cc(C(F)(F)F)cn1` [Compound 120], the “Plant response rating, Sedge, Umbrella” value is 0 with sedge, umbrella (31 g ai/ha); 0 in the test on sedge, umbrella (62 g ai/ha); 60 with sedge, umbrella (125 g ai/ha); 85 in the test on sedge, umbrella (250 g ai/ha). Also, in the test with Italian ryegrass (31 g ai/ha), the “Ryegrass … (0 to 100 scale)” value is 0. Also, the “Plant response rating, Ryegrass, Italian” value with Italian ryegrass (setting [5]) amounted to 30. Also, the figures for the “Plant response rating, Galium” value in the test on galium (setting [7]) and in the test with galium (setting [5]) were 90 and 100, respectively.
For `FC(F)(F)Sc1cnn(-c2ccccc2Oc2ncc(Cl)cn2)c1` [Compound 132, 5-chloro-2-[2-[4-(trifluoromethylthio)-1H-pyrazol-1-yl]phenoxy]pyrimidine], the “Plant response rating, Ryegrass, Italian” value in the test with Italian ryegrass (setting [5]) stood at 30. The “Ryegrass, Italian plant response rating” value in the test with Italian ryegrass (setting [3]) stood at 40. The “Galium plant response rating” value in the test on galium (setting [5]) is on record as 100. In the test with galium (setting [3]), the “Plant response rating, Galium” value was found to be 100.
As to `Clc1cnc(Oc2ccccc2-n2cc(Cl)cn2)nc1` [Compound 3], the “Plant response rating, Sedge, Umbrella” value in the test with sedge, umbrella (31 g ai/ha) was found to be 0; with sedge, umbrella (62 g ai/ha) it was 0; in the test with sedge, umbrella (125 g ai/ha), 20; with sedge, umbrella (250 g ai/ha) it was 70.
As to `Clc1cnc(Oc2cccc(Br)c2-n2cc(Br)nn2)nc1` [Compound 129], the “Plant response rating, Ryegrass, Italian” value in the test on Italian ryegrass (setting [5]) is 10. Further, the “Ryegrass, Italian plant response rating” value in the test on Italian ryegrass (setting [3]) was found to be 30. For the same molecule, the “Galium plant response rating” value with galium (setting [5]) was 100. Further, in the test with galium (setting [3]), the “Plant response rating, Galium” value stood at 100.
`Clc1cnc(Oc2cccc(Br)c2-n2cc(Br)cn2)nc1` [Compound 65]: the “Plant response rating, Sedge, Umbrella” value worked out at 50 in the test on sedge, umbrella (31 g ai/ha); 65 in the test on sedge, umbrella (62 g ai/ha); 75 in the test on sedge, umbrella (125 g ai/ha); 85 in the test with sedge, umbrella (250 g ai/ha).
Regarding `N#Cc1cnn(-c2c(Oc3ncc(Cl)cn3)cccc2C(F)F)c1` [Compound 236], the “Plant response rating, Sedge, Umbrella” value in the test with sedge, umbrella (31 g ai/ha) was determined as 0; with sedge, umbrella (62 g ai/ha), 20; with sedge, umbrella (125 g ai/ha) it was 60; in the test with sedge, umbrella (250 g ai/ha), 80.
Regarding `FCc1cccc(Oc2ncc(Cl)cn2)c1-n1cc(Br)cn1` [Compound 83], in the test on Italian ryegrass (setting [5]), the “Plant response rating, Ryegrass, Italian” value is reported as 50. For the same molecule, in the test with Italian ryegrass (setting [8]), the “Ryegrass, Italian plant response rating” value stood at 60. The “Plant response rating, Galium” value in the test on galium (setting [5]) and in the test with galium (setting [3]) was 100 throughout.
As to `CCOc1cn(-c2c(Br)cccc2Oc2ncc(Cl)cn2)nn1` [Compound 84], the “Plant response rating, Ryegrass, Italian” value in the test with Italian ryegrass (setting [5]) is reported as 0. Further, the “Ryegrass, Italian plant response rating” value in the test on Italian ryegrass (setting [8]) came out at 20. Further, the “Plant response rating, Galium” value in the test on galium (setting [5]) and with galium (setting [3]) was 100 throughout.
For `FCc1cccc(Oc2ncc(F)cn2)c1-n1cc(C(F)(F)F)cn1` [Compound 118], in the test on Italian ryegrass (31 g ai/ha), the “Ryegrass … (0 to 100 scale)” value worked out at 0. Also, the “Plant response rating, Ryegrass, Italian” value in the test on Italian ryegrass (setting [5]) was determined as 50. Further, the results for the “Plant response rating, Galium” value with galium (setting [7]) and in the test with galium (setting [5]) were 70 and 90, respectively.
On to `Fc1cccc(Oc2ncc(Cl)cn2)c1-n1cc(C2CC2)nn1` [Compound 155], for which the “Ryegrass, Italian plant response rating” value in the test on Italian ryegrass (setting [1]) came out at 60. Moreover, the “Plant response rating, Galium” value in the test with galium (setting [2]) was found to be 100.
Consider `CCCOc1cnn(-c2c(C#N)cccc2Oc2ncc(Cl)cn2)c1` [Compound 150], for which the “Plant response rating, Sedge, Umbrella” value with sedge, umbrella (31 g ai/ha) was 0; with sedge, umbrella (62 g ai/ha) it was 50; in the test with sedge, umbrella (125 g ai/ha) it was 75; in the test on sedge, umbrella (250 g ai/ha), 85. The “Plant response rating, Ryegrass, Italian” value in the test on Italian ryegrass (setting [5]) came out at 20. Moreover, the “Ryegrass, Italian plant response rating” value in the test on Italian ryegrass (setting [3]) came out at 50. Besides, in the test on galium (setting [5]), the “Galium plant response rating” value was found to be 90. The “Plant response rating, Galium” value in the test on galium (setting [3]) came to 100.
For `N#Cc1cccc(Oc2ncc(F)cn2)c1-n1cc(Br)cn1` [Compound 62], the “Plant response rating, Sedge, Umbrella” value with sedge, umbrella (31 g ai/ha) was 0; in the test with sedge, umbrella (62 g ai/ha), 50; in the test with sedge, umbrella (125 g ai/ha) it was 90; in the test on sedge, umbrella (250 g ai/ha) it was 100.
Turning to `COc1cnn(-c2c(C#N)cccc2Oc2ncc(Cl)cn2)c1` [Compound 137], in the test on Italian ryegrass (setting [5]), the “Plant response rating, Ryegrass, Italian” value is 0. The “Ryegrass, Italian plant response rating” value in the test on Italian ryegrass (setting [3]) worked out at 20. In the test with galium (setting [5]), the “Galium plant response rating” value is listed as 70. Also, the “Plant response rating, Galium” value in the test on galium (setting [3]) amounted to 100.
